Assay results from patent publication US12508239B2, “Alcohol derivatives as Kv7 potassium channel openers for use in epilepsy or seizures” (H. Lundbeck A/S, priority 2019, dated 2025).

How the values were obtained:
hKv7.2/hKv7.3 [1] = molecular target: T1, hKv7.2/hKv7.3 (Homo sapiens, UniProt O43525+O43526); test: Thallium influx assay for potassium channel activation; assay type: cell-based; details: HEK-hKv7.2/hKv7.3 cells; AUC readout normalized to a reference compound
T1 construct: P2A self-cleaving linker (remnant after ribosomal skipping); expressed in transfected cells; vector pcDNA5/FRT/TO
Method: (§1) A synthesized cDNA fragment encoding human Kv7.3 and human Kv7.2 separated by a P2A sequence was inserted into the pcDNA5/FRT/TO vector using the BamHI and XhoI restriction sites. The construct was then transfected into HEK Flp-In 293 cells using Lipofectamine2000. The transfected cells were grown for 48 hours in DMEM containing 10% (v/v) FBS and 1% PenStrep and subsequently maintained under selection in DMEM containing 10% (v/v) FBS, 1% PenStrep and 200 ug/mL Hygromycin B at 37° C. in a humidified atmosphere of 5% CO2.
The thallium influx assay for potassium channel activation was performed analogously to a published procedure (C. D. Weaver, et al., J Biomol Screen 2004, 9, 671-677) using the FLIPR Potassium Assay kit (Molecular Devices). HEK-hKv7.2/hKv7.3 cells were plated onto 96-well, black-walled, clear-bottomed culture plates (Corning, Acton, MA, USA) at a density of 80,000 cells/well (100 μl/well) if the cells were assayed the following day, or 40,000 cells/well (100 μl/well) if the cells were assayed two days after seeding.
On the assay day, the medium was removed after which 50 uL/well of test compound diluted to 2× final concentration in HBSS containing 20 mM HEPES, and 50 uL/well of 2× dye load buffer were added. The cells were then incubated for 60 min at room temperature in the dark. Chloride-free stimulation buffer containing Tl^+ and K^+ at 5× final concentration (5× concentration: 5 mM in both cases) and test compound at 1× final concentration, were prepared during the incubation. The cells were then assayed in a FDSS7000EX Functional Drug Screening System (Hamamatsu). Following 60 sec of baseline fluorescence signal reading at 0.1 Hz, and 10 sec at 1 Hz, 25 uL/well of stimulation buffer were added and the fluorescence continuously measured for 50 sec at 1 Hz followed, by 4 min at 0.1 Hz. Compound effect was quantified using AUC as readout and normalized to a reference compound, which was included on each plate.

rats = test: Maximal electroshock seizure threshold test (MEST) in rats; assay type: in vivo, rat; details: for seizure threshold: rats
Method: (§2) Significant differences between drug-treated animals and controls were assessed according to Litchfield and Wilcoxon, Pharmacol Exp Ther. 1949; 96(1):99-113

mice = test: Maximal electroshock seizure threshold test (MEST) in mice; assay type: in vivo, mouse; details: corneal electrodes
Method: as §2

hKv7.2/hKv7.3 [2] = molecular target: T1, hKv7.2/hKv7.3; test: Automated whole cell patch-clamp of stable HEK-hKv7.2/hKv7.3 cell line; assay type: cell-based; details: functional test of the cell line
Method: as §1

C[C@H](NC(=O)C[C@H](O)C1CC(F)(F)C1)c1cccc(OC(F)(F)F)c1 [Example 11a, 3-(3,3-Difluorocyclobutyl)-3-hydroxy-N—((S)-1-(3-(trifluoromethoxy)phenyl)ethyl) propanamide]
EC50 (hKv7.2/hKv7.3 [1]): 1.5 µM

C[C@H](NC(=O)CC(C)(O)C(F)(F)C(F)F)c1cccc(OC(F)(F)F)c1 (single isomer, unassigned) [Example 10a]
EC50 (hKv7.2/hKv7.3 [1]): 0.65 µM

C[C@H](NC(=O)C[C@@](C)(O)CC(F)(F)F)c1cccc(OC(F)(F)F)c1 (single isomer, unassigned) [Example 13a]
EC50 (hKv7.2/hKv7.3 [1]): 1.9 µM

C[C@H](NC(=O)CC1(O)CC(F)(F)C1)c1cccc(OC(F)(F)F)c1 [Example 5, (S)-2-(3,3-difluoro-1-hydroxycyclobutyl)-N-(1-(3-(trifluoromethoxy)phenyl)ethyl) acetamide]
seizure threshold CC50 (current producing tonic hind limb extensor seizures in 50% of animals) (rats; rat, acute peroral administration 30 min prior to test, all doses tested 0.03-1 mg/kg, relative to vehicle): significantly increased | seizure threshold (rats; pretreatment with a single acute administration): significant increase | seizure threshold (rats; repeated administration (once daily, 15 days)): significant increase | current required to induce an electroconvulsion, i.e. seizure threshold (mice): dose-dependent significant increase

O=C1c2ccccc2C(Cc2ccncc2)(Cc2ccncc2)c2ccccc21 [XE991]
effect on Kv7-current (hKv7.2/hKv7.3 [2]): sensitive

CCOC(=O)Nc1ccc(NCc2ccc(F)cc2)cc1N [Retigabine, N-(2-amino-4-(4-fluorobenzylamino)-phenyl) carbamic acid ethyl ester]
effect on Kv7-current (hKv7.2/hKv7.3 [2]): potentiated
